ChEMBL document CHEMBL1158779, “Sulfur-containing polybromoindoles from the Formosan red alga Laurencia brongniartii” (J Nat Prod, 2005)
Active and inactive are the calls of the source. No cut-off for these calls is given here.

Columns and labels:
HT-29 = assay: Cytotoxicity against human HT-29 cells; format: functional, cell-based
P388 = assay: Cytotoxicity against mouse P388 cells; format: functional, cell-based

CSc1c([S+](C)[O-])[nH]c2cc(Br)cc(Br)c12 (centres undefined)
Activity (HT-29): inactive | Activity (P388): inactive

CSc1c([S+](C)[O-])[nH]c2cc(Br)c(Br)c(Br)c12 (centres undefined)
Activity (HT-29): inactive | Activity (P388): inactive

CSc1cc2c(Br)cc(Br)cc2[nH]1
Activity (HT-29): inactive | Activity (P388): inactive

CSc1[nH]c2cc(Br)cc(Br)c2c1SC
Activity (HT-29): inactive | Activity (P388): inactive

C[S+]([O-])c1[nH]c2cc(Br)cc(Br)c2c1[S+](C)[O-] (centres undefined)
Activity (HT-29): inactive | Activity (P388): inactive

CSc1[nH]c2cc(Br)cc(Br)c2c1-c1c([S+](C)[O-])[nH]c2cc(Br)cc(Br)c12 (centres undefined)
Activity (HT-29): Active | Activity (P388): Active

C[S+]([O-])c1[nH]c2cc(Br)cc(Br)c2c1-c1c([S+](C)[O-])[nH]c2cc(Br)cc(Br)c12 (centres undefined)
Activity (HT-29): inactive | Activity (P388): Active

C[S+]([O-])c1c(Br)[nH]c2cc(Br)cc(Br)c12 (centres undefined)
Activity (HT-29): inactive | Activity (P388): inactive

CSc1c(Br)[nH]c2cc(Br)c(Br)c(Br)c12
Activity (HT-29): inactive | Activity (P388): inactive

CSc1c(Br)[nH]c2cc(Br)cc(Br)c12
Activity (HT-29): inactive | Activity (P388): inactive

CSc1[nH]c2cc(Br)c(Br)c(Br)c2c1SC
Activity (HT-29): inactive | Activity (P388): inactive

CSc1[nH]c2cc(Br)cc(Br)c2c1-c1c(SC)[nH]c2cc(Br)cc(Br)c12
Activity (HT-29): inactive | Activity (P388): inactive
